The source of these data is ChEMBL document CHEMBL1201862, “PubChem BioAssay data set” (2004).

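Interpolation was linear, between the two tested concentrations surrounding the appropriate level; five concentrations were tested over 48 hours in 96-well plates. Abbreviation: GI50, concentration required for 50% inhibition of growth.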 Activity calls are given as the source filed them. Cut-off read from the data, not from the text of the source: active = GI50 up to about 1.1 µM and inactive = higher.

Some test systems named below: PC-3; SK-MEL-5; A498; NCI-H23; HCT-15; RPMI-8226; NCI-H460; UO-31; SK-MEL-28; OVCAR-8; NCI-H522; T47D; NCI/ADR-RES; HOP-92; HCC 2998; K562; IGROV-1; HL-60; SR.
Common to all, as to experiment: NCI anticancer screen, dose series, 48 h

Take `O=C1CCCc2cc3c(cc21)CC1(C3)Cc2cc3c(cc2C1)C(=O)CCC3`: the GI50 in the test on PC-3 was 1.24 µM (inactive); with SK-MEL-5 it was 0.532 µM (active); in the test on A498 it was 5.45 µM (inactive); in the test on NCI-H23, 2.2 µM (inactive); in the test on HCT-15, 0.662 µM; with RPMI-8226 it was 0.746 µM (active). The GI50 was 1.22 µM (inactive) in the test with NCI-H460; 5.55 µM (inactive) in the test with UO-31; 3.23 µM (inactive) in the test with SK-MEL-28; 3.04 µM (inactive) with OVCAR-8; 0.679 µM (active) with NCI-H522; 9.48 µM (inactive) with T47D. Besides, the GI50 in the test with NCI/ADR-RES is 0.769 µM (active); in the test with HOP-92, 6.78 µM (inactive); in the test on HCC 2998, 2.34 µM (inactive); in the test on K562 it was 0.396 µM (active); in the test on IGROV-1, 1.38 µM (inactive); in the test on HL-60, 0.368 µM (active). The GI50 in the test with SR was 0.106 µM (active).
As to `CCCCCCc1cc2cc(C(=O)NCc3ccccc3)c(=N)oc2cc1O`, the GI50 in the test with PC-3 was > 100 µM (inactive); in the test with SK-MEL-5, > 100 µM (inactive); in the test with A498, > 100 µM (inactive); in the test with NCI-H23 it was > 100 µM (inactive); in the test with HCT-15, > 100 µM; in the test on RPMI-8226, > 100 µM (inactive). In addition, the GI50 with NCI-H460, with SK-MEL-28, in the test with OVCAR-8, in the test on NCI-H522, with T47D and with NCI/ADR-RES was > 100 µM (inactive) in each case. Also, the GI50 with HOP-92, in the test on HCC 2998, in the test on K562, in the test with IGROV-1, with HL-60 and in the test on SR was > 100 µM (inactive) each time.
Take `COCCOC(=O)c1c(C)[n+]([O-])c2cc(Cl)c(Cl)cc2[n+]1[O-]`: the GI50 was 21.3 µM (inactive) in the test on PC-3; 7.6 µM (inactive) with SK-MEL-5; 20.3 µM (inactive) in the test on A498; 19.8 µM (inactive) in the test on NCI-H23; 8.71 µM in the test with HCT-15; 4.69 µM (inactive) in the test on RPMI-8226. Moreover, the GI50 in the test with NCI-H460 was 7.85 µM (inactive); in the test with UO-31, 0.311 µM (active); in the test on SK-MEL-28, 28.4 µM (inactive); with OVCAR-8, 7.06 µM (inactive); in the test with NCI-H522, 17.1 µM (inactive); with T47D, 4.68 µM (inactive). Also, the GI50 is 11 µM (inactive) with NCI/ADR-RES; 5.21 µM (inactive) in the test with HOP-92; 13.7 µM (inactive) in the test with K562; 3.85 µM (inactive) in the test on IGROV-1; 6.41 µM (inactive) in the test with HL-60; 4.76 µM (inactive) in the test on SR.
For `O=C(O)c1ccc(Nc2cnc3ccc(C(F)(F)F)cc3n2)cc1`, the GI50 in the test on PC-3 is 17.7 µM (inactive); in the test with SK-MEL-5, 16.9 µM (inactive); in the test with A498, 23.8 µM (inactive); with NCI-H23, 17 µM (inactive); in the test on HCT-15 it was 18.7 µM; in the test with RPMI-8226 it was 18.1 µM (inactive). Further, the GI50 in the test with NCI-H460 was 28.1 µM (inactive); with UO-31, 13.7 µM (inactive); with SK-MEL-28, 34 µM (inactive); with OVCAR-8, 17.1 µM (inactive); in the test with T47D, 6.07 µM (inactive); in the test on NCI/ADR-RES, 32.7 µM (inactive). Moreover, the GI50 in the test with HOP-92 was 15.5 µM (inactive); in the test on HCC 2998 it was 6.61 µM (inactive); with K562, 20.9 µM (inactive); in the test on IGROV-1 it was 12.4 µM (inactive); with HL-60, 5.4 µM (inactive); with SR, 20.4 µM (inactive).
As to `COC1(OC)N=C(N)C2(C#N)C3(C(=O)N(C(C)C)N=C3C)C12C#N` (stereo unspecified), the GI50 in the test with PC-3 was > 100 µM (inactive); in the test on A498, > 100 µM (inactive); in the test with NCI-H23, > 100 µM (inactive); in the test with HCT-15, > 100 µM; in the test on RPMI-8226, > 100 µM (inactive); with NCI-H460, > 100 µM (inactive). For the same compound, the GI50 with UO-31, in the test on SK-MEL-28, with OVCAR-8, in the test on NCI-H522, in the test with T47D and in the test on NCI/ADR-RES was > 100 µM (inactive) each time. The GI50 in the test on HOP-92, in the test with HCC 2998, in the test on K562, with IGROV-1, with HL-60 and in the test with SR was > 100 µM (inactive) in each case.
For `CCOC(=O)c1sc(=S)n(-c2ccc(Cl)cc2)c1-n1cc(-c2ccccc2)c(C#N)c1N`, the GI50 is 11.8 µM (inactive) with PC-3; 16.3 µM (inactive) in the test with SK-MEL-5; 23.1 µM (inactive) in the test with A498; 21.8 µM (inactive) in the test on NCI-H23; 42.8 µM in the test with HCT-15; 26.5 µM (inactive) in the test with RPMI-8226. The GI50 with NCI-H460 was 22.3 µM (inactive); in the test with SK-MEL-28, 38.2 µM (inactive); with OVCAR-8 it was 12.1 µM (inactive); with NCI-H522 it was 3.32 µM (inactive); with T47D, 13.1 µM (inactive); with NCI/ADR-RES, 16.9 µM (inactive). For the same compound, the GI50 is 15.4 µM (inactive) with HOP-92; 34.2 µM (inactive) with HCC 2998; 44.4 µM (inactive) with K562; 15.3 µM (inactive) with IGROV-1; 34.2 µM (inactive) with HL-60; 17.4 µM (inactive) in the test on SR.
On to `C=CCc1c(Cl)nc(Cl)nc1Cl`, for which the GI50 with PC-3 was 0.733 µM (active); with SK-MEL-5, 0.0818 µM (active); with A498 it was 1.94 µM (inactive); in the test with NCI-H23, 0.422 µM (active); in the test on HCT-15 it was 0.0873 µM; with RPMI-8226, 0.301 µM (active). Moreover, the GI50 in the test on NCI-H460 was 0.565 µM (active); in the test on UO-31 it was 0.0748 µM (active); with SK-MEL-28, 0.431 µM (active); in the test with OVCAR-8 it was 0.274 µM (active); in the test on NCI-H522 it was < 0.0191 µM (active); in the test on T47D it was 0.313 µM (active). Besides, the GI50 in the test on NCI/ADR-RES was 0.853 µM (active); in the test on HOP-92, 0.255 µM (active); with HCC 2998 it was 0.832 µM (active); in the test with K562 it was < 0.0151 µM (active); in the test on IGROV-1, 0.323 µM (active); in the test on HL-60 it was > 100 µM (inactive). The GI50 with SR was < 0.01 µM (active).
For the compound `COc1cc2oc3ccccc3c(=O)c2cc1CSc1ccccc1N`, the GI50 in the test on PC-3 is 14.5 µM (inactive); in the test with SK-MEL-5, 13.5 µM (inactive); in the test on A498 it was 17.3 µM (inactive); with NCI-H23 it was 29.9 µM (inactive); in the test on HCT-15, 6.95 µM; with RPMI-8226, 9.46 µM (inactive). The GI50 with NCI-H460 is 15.1 µM (inactive); in the test on SK-MEL-28 it was 18.7 µM (inactive); in the test on OVCAR-8 it was 33.5 µM (inactive); in the test on NCI-H522, 8.89 µM (inactive); in the test on T47D, 7.85 µM (inactive); in the test with NCI/ADR-RES it was 6.5 µM (inactive). In addition, the GI50 is 35.2 µM (inactive) with HOP-92; 5.24 µM (inactive) in the test on HCC 2998; 3.91 µM (inactive) in the test with K562; 12 µM (inactive) with IGROV-1; 3.83 µM (inactive) in the test with HL-60; 5.2 µM (inactive) in the test with SR.
In the case of `CSC1=C(C)S/C(=C\c2ccc(/C=C3\SC(C)=C(SC)S3)cc2)S1`, the GI50 in the test on PC-3 is > 100 µM (inactive); in the test with SK-MEL-5, > 100 µM (inactive); in the test on A498, > 100 µM (inactive); with NCI-H23 it was > 100 µM (inactive); in the test on HCT-15, > 100 µM; in the test on NCI-H460, > 100 µM (inactive). Further, the GI50 with UO-31, with SK-MEL-28, in the test on OVCAR-8, in the test with NCI-H522, with T47D and with NCI/ADR-RES was > 100 µM (inactive) each time. The GI50 in the test on HOP-92 is 39.3 µM (inactive); with HCC 2998, > 100 µM (inactive); in the test on K562 it was > 100 µM (inactive); in the test with IGROV-1 it was > 100 µM (inactive); in the test on HL-60, > 100 µM (inactive); in the test with SR it was > 100 µM (inactive).
On to `CCOC(=O)P(=O)(O)c1ccc(N(C)Cc2ccccc2)cc1`, for which the GI50 in the test on PC-3 was > 100 µM (inactive); in the test on SK-MEL-5, > 100 µM (inactive); in the test on A498 it was > 100 µM (inactive); in the test with NCI-H23, > 100 µM (inactive); in the test on HCT-15, > 100 µM; in the test on RPMI-8226 it was > 100 µM (inactive). Also, the GI50 in the test on UO-31, with SK-MEL-28, with OVCAR-8, in the test with NCI-H522, in the test with T47D and in the test on NCI/ADR-RES was > 100 µM (inactive) in each case. Also, the GI50 with HOP-92, in the test on HCC 2998, with K562, in the test with IGROV-1, in the test on HL-60 and in the test with SR was > 100 µM (inactive) each time.
As for `O=C1CC[N+]2=Cc3ccccc3O[B-]2(c2ccccc2)O1` (stereo unspecified), the GI50 with PC-3 is > 100 µM (inactive); in the test with SK-MEL-5, 97.7 µM (inactive); in the test with A498, > 100 µM (inactive); in the test on NCI-H23 it was > 100 µM (inactive); with HCT-15, > 100 µM; with RPMI-8226 it was > 100 µM (inactive). The GI50 in the test on NCI-H460, with UO-31, in the test with SK-MEL-28, in the test with OVCAR-8, in the test on NCI-H522 and with T47D was > 100 µM (inactive) each time. The GI50 in the test with NCI/ADR-RES is > 100 µM (inactive); in the test with HOP-92, 21.5 µM (inactive); in the test on HCC 2998, > 100 µM (inactive); with K562 it was > 100 µM (inactive); in the test on IGROV-1, > 100 µM (inactive); in the test with HL-60 it was 89.9 µM (inactive). The GI50 in the test on SR was > 100 µM (inactive).
